Patent US6355799B1, “Substituted benzene compounds, process for their preparation, and herbicidal and defoliant compositions containing them” (ISK Americas Incorporated, priority 1997, dated 2002)

Assays:
Type in all cases: in vivo
[1] = system: lambsquarters (Chenopodium album, CHEAL); assay: Pre-emerge test, greenhouse herbicide activity screening; conditions: pre-emerge, 14 days after application
Source text: (§1) A standard greenhouse herbicide activity screening system was used to evaluate the herbicidal efficacy and crop safety of these test compounds. Seven broadleaf weed species including redroot pigweed (Amaranthus retroflexus, AMARE, velvetleaf (Abutilon theophrasti, ABUTH), sicklepod (Cassia obtusifolia, CASOB), ivyleaf morningglory (Ipomoea hederacea, IPOHE), lambsquarters (Chenopodium album, CHEAL), common ragweed (Ambrosia artemisizfolia L., AMBEL), and cocklebur (Xanthium strumarium, XANST) were used as test species. Four grass weed species including green foxtail (Setaria viridis, SETVI), barnyardgrass (Echinochloa crus-galli, ECHCG), johnsongrass (Sorghum halepense, SORHA), and large crabgrass (Digitaria sanguinalis, DIGSA) were also used. In addition, three crop species, field corn (Zea mays L., var. Dekalb 535, CORN), soybean (Glycine max L., var. Pella 86, SOY), and is upland rice (Oryza sp., var. Tebonnet, RICE) were included.
(§2) All plants were grown in 10 cm square plastic pots which were filled with a sandy loam soil mix. For pre-emerge tests, seeds were planted one day prior to application of the test compounds. For post-emerge tests, seeds were planted 8-21 days prior to the test to allow emergence and good foliage development prior to application of the test substances. At the time of the post-emerge application, plants of all species were usually at the 2-3 leaf stage of development.
(§3) All test compounds Were dissolved in acetone and applied to the test units in a volume of 187 l /ha. Test materials were applied at rates ranging from 15 g ai/ha to 1000 g ai/ha using a track sprayer equipped with a TJ8001E even flow flat fan spray nozzle. Plants were arranged on a shelf so that the top of the canopy (post-emerge) or top of the soil surface (pre-emerge) was 40-45 cm below the nozzle. Pressurized air was used to force the test solution through the nozzle as it was mechanically advanced (via electrically driven chain drive) over the top of all test plants/pots. This application simulates a typical commercial field herbicide application.
(§4) In the post-emerge test, a commercial non-ionic surfactant was also included (0.25% v/v) to enhance wetting of the leaf surfaces of target plants. Immediately after application, test units of the pre-emerge applications were watered at the soil surface to incorporate the test materials. Subsequently, these test units were bottom-watered. Post-emerge test units were always bottom-watered.
(§5) At 14 days after application of the test materials, phytotoxicity ratings were recorded. A rating scale of 0-100 was used as previously described in Research Methods in Weed Science, 2nd edition, B. Truelove, Ed., Southern Weed Science Society, Auburn University, Auburn, Ala. 1977. Briefly, “0” corresponds to no damage and “100” corresponds to complete death of all plants in the test unit. This scale was used both to determine efficacy against weed species and damage to crop species. Herbicide activity data for various compounds of this invention, which are shown by compound No. in Tables 1-8, are shown in Tables 11 and 12.

[2] = system: large crabgrass (Digitaria sanguinalis, DIGSA); assay: as above; conditions: pre-emerge, 14 days after application
Source text: as §1, §2, §3, §4, §5

[3] = system: ivyleaf morningglory (Ipomoea hederacea, IPOHE); assay: as above; conditions: pre-emerge, 14 days after application
Source text: as §1, §2, §3, §4, §5

[4] = system: sicklepod (Cassia obtusifolia, CASOB); assay: as above; conditions: pre-emerge, 14 days after application
Source text: as §1, §2, §3, §4, §5

[5] = system: green foxtail (Setaria viridis, SETVI); assay: as above; conditions: pre-emerge, 14 days after application
Source text: as §1, §2, §3, §4, §5

[6] = system: barnyardgrass (Echinochloa crus-galli, ECHCG); assay: as above; conditions: pre-emerge, 14 days after application
Source text: as §1, §2, §3, §4, §5

[7] = system: velvetleaf (Abutilon theophrasti, ABUTH); assay: as above; conditions: pre-emerge, 14 days after application
Source text: as §1, §2, §3, §4, §5

[8] = system: redroot pigweed (Amaranthus retroflexus, AMARE); assay: as above; conditions: pre-emerge, 14 days after application
Source text: as §1, §2
as §3, with “Test materials were applied at rates ranging from 15 g ai/ha to 1000 g ai/ha using a track sprayer equipped with a TJ8001E even flow flat fan spray nozzle.” left out
as §4, §5

[9] = system: field corn (Zea mays L., var. Dekalb 535, CORN); assay: Pre-emerge test, crop safety; conditions: pre-emerge, 14 days after application, scale 0-100
Source text: as §1, §2, §3, §4, §5

[10] = system: upland rice (Oryza sp., var. Tebonnet, RICE); assay: Pre-emerge test, crop safety; conditions: pre-emerge, 14 days after application, scale 0-100
Source text: as §1, §2, §3, §4, §5

[11] = system: redroot pigweed (Amaranthus retroflexus, AMARE); assay: Post-emerge test, greenhouse herbicide activity screening; conditions: post-emerge, 14 days after application
Source text: as §1, §2, §3, §4, §5

[12] = system: lambsquarters (Chenopodium album, CHEAL); assay: as above; conditions: post-emerge, 14 days after application, rating scale 0-100
Source text: as §1, §2, §3, §4, §5

[13] = system: large crabgrass (Digitaria sanguinalis, DIGSA); assay: as above; conditions: post-emerge, 14 days after application, rating scale 0-100
Source text: as §1, §2, §3, §4, §5

[14] = system: ivyleaf morningglory (Ipomoea hederacea, IPOHE); assay: as above; conditions: post-emerge, 14 days after application, rating scale 0-100
Source text: as §1, §2, §3, §4, §5

[15] = system: sicklepod (Cassia obtusifolia, CASOB); assay: as above; conditions: post-emerge, 14 days after application, rating scale 0-100
Source text: as §1, §2, §3, §4, §5

[16] = system: green foxtail (Setaria viridis, SETVI); assay: as above; conditions: post-emerge, 14 days after application, rating scale 0-100
Source text: as §1, §2, §3, §4, §5

[17] = system: barnyardgrass (Echinochloa crus-galli, ECHCG); assay: as above; conditions: post-emerge, 14 days after application, rating scale 0-100
Source text: as §1, §2, §3, §4, §5

[18] = system: velvetleaf (Abutilon theophrasti, ABUTH); assay: as above; conditions: post-emerge, 14 days after application, rating scale 0-100
Source text: as §1, §2, §3, §4, §5

[19] = 250 g ai/ha, rating scale 0-100

COc1c(Cl)cc(F)c(-n2c(=O)cc(C(F)(F)F)n(C)c2=O)c1NC(=O)c1cc2ccccc2cc1C [2-157]
0: phytotoxicity rating CORN (crop damage) ([9]; 63 g ai/ha)
30: phytotoxicity rating CASOB ([4]; 63 g ai/ha, scale 0-100) | phytotoxicity rating SETVI ([5]; 63 g ai/ha, scale 0-100) | phytotoxicity rating ECHCG ([6]; 63 g ai/ha, scale 0-100) | phytotoxicity rating RICE (crop damage) ([10]; 63 g ai/ha)
90: phytotoxicity rating CASOB ([4]; 250 g ai/ha, scale 0-100)
35: phytotoxicity rating DIGSA ([2]; 63 g ai/ha, scale 0-100)
95: phytotoxicity rating ECHCG ([6]; 250 g ai/ha, scale 0-100)
45: phytotoxicity rating CORN (crop damage) ([9]; 250 g ai/ha)
70: phytotoxicity rating DIGSA ([2]; 250 g ai/ha, scale 0-100) | phytotoxicity rating SETVI ([5]; 250 g ai/ha, scale 0-100) | phytotoxicity rating RICE (crop damage) ([10]; 250 g ai/ha)
100: phytotoxicity rating CHEAL ([1]; 63 g ai/ha, scale 0-100) | phytotoxicity rating CHEAL ([1]; 250 g ai/ha, scale 0-100) | phytotoxicity rating IPOHE ([3]; 250 g ai/ha, scale 0-100) | phytotoxicity rating ABUTH ([7]; 63 g ai/ha, scale 0-100) | phytotoxicity rating ABUTH ([7]; 250 g ai/ha, scale 0-100) | phytotoxicity rating AMARE ([8]; 63 g ai/ha, scale 0-100) | phytotoxicity rating AMARE ([8]; 250 g ai/ha, scale 0-100)
40: phytotoxicity rating IPOHE ([3]; 63 g ai/ha, scale 0-100)

COc1c(Cl)cc(F)c(-n2c(=O)cc(C(F)(F)F)n(C)c2=O)c1NN [Compound 15-1, 3-[4-chloro-2-diazanyl-6-fluoro-3-methoxyphenyl]-1-methyl-6-trifluoromethyl-2,4(1H, 3H)-pyrimidinedione]
91: phytotoxicity rating ECHCG ([6]; 63 g ai/ha, rating scale 0-100)
100: phytotoxicity rating CHEAL ([1]; 63 g ai/ha, rating scale 0-100) | phytotoxicity rating CHEAL [1, 19] | phytotoxicity rating DIGSA ([2]; 63 g ai/ha, rating scale 0-100) | phytotoxicity rating DIGSA [2, 19] | phytotoxicity rating IPOHE ([3]; 63 g ai/ha, rating scale 0-100) | phytotoxicity rating IPOHE [3, 19] | phytotoxicity rating CASOB ([4]; 63 g ai/ha, rating scale 0-100) | phytotoxicity rating CASOB [4, 19] | phytotoxicity rating SETVI ([5]; 63 g ai/ha, rating scale 0-100) | phytotoxicity rating SETVI [5, 19] | phytotoxicity rating ECHCG [6, 19] | phytotoxicity rating ABUTH ([7]; 63 g ai/ha, rating scale 0-100) | phytotoxicity rating ABUTH [7, 19] | Post-emerge Herbicidal Activity AMARE (phytotoxicity rating) ([11]; 63 g ai/ha, rating scale 0-100 (0 no damage, 100 complete death)) | Post-emerge Herbicidal Activity AMARE (phytotoxicity rating) [11, 19] | Post-emerge Herbicidal Activity CHEAL (phytotoxicity rating) ([12]; 63 g ai/ha) | Post-emerge Herbicidal Activity CHEAL (phytotoxicity rating) ([12]; 250 g ai/ha) | Post-emerge Herbicidal Activity DIGSA (phytotoxicity rating) ([13]; 250 g ai/ha) | Post-emerge Herbicidal Activity IPOHE (phytotoxicity rating) ([14]; 63 g ai/ha) | Post-emerge Herbicidal Activity IPOHE (phytotoxicity rating) ([14]; 250 g ai/ha) | Post-emerge Herbicidal Activity CASOB (phytotoxicity rating) ([15]; 63 g ai/ha) | Post-emerge Herbicidal Activity CASOB (phytotoxicity rating) ([15]; 250 g ai/ha) | Post-emerge Herbicidal Activity SETVI (phytotoxicity rating) ([16]; 250 g ai/ha) | Post-emerge Herbicidal Activity ABUTH (phytotoxicity rating) ([18]; 63 g ai/ha) | Post-emerge Herbicidal Activity ABUTH (phytotoxicity rating) ([18]; 250 g ai/ha) | phytotoxicity rating AMARE ([8]; 63 g ai/ha, rating scale 0-100) | phytotoxicity rating AMARE [8, 19]
90: Post-emerge Herbicidal Activity DIGSA (phytotoxicity rating) ([13]; 63 g ai/ha)
99: Post-emerge Herbicidal Activity ECHCG (phytotoxicity rating) ([17]; 250 g ai/ha)
80: Post-emerge Herbicidal Activity SETVI (phytotoxicity rating) ([16]; 63 g ai/ha) | Post-emerge Herbicidal Activity ECHCG (phytotoxicity rating) ([17]; 63 g ai/ha)
